Source: paper PMC5444442, “Flagellin peptide flg22 gains access to long-distance trafficking in Arabidopsis via its receptor, FLS2” (Journal of Experimental Botany, 2017)
Peptide text beside a SMILES is read from it.

Tests used:
[1] = system: Arabidopsis leaf discs; assay: Subcellular localization, uptake and accumulation of flg22 in leaf discs; format: cell-based, Arabidopsis thaliana; details: Col leaf discs
Description: Leaf discs were floated (abaxial side down) on 1–5 μM TAMRA–flg22 or 5–10 μM FAM–flg22 solution (in water) at room temperature for the indicated time (lower concentrations were used for overnight treatments). Inhibitors that affect endocytosis, MG132 (Sigma-Aldrich, 50 μM) or 2,3-butanedione monoxime (BDM; Sigma-Aldrich, 50 mM) were added at the same time as the peptides. FM4-64 (Invitrogen, 6–8 μM) or 2′,7′-bis-(2-carboxyethyl)-5-(and-6)-carboxyfluorescein (BCECF)-AM (cleaved by an endogenous plant esterase to BCECF, Invitrogen, 20–40 μM) mixed with peptide solution was vacuum infiltrated for 2 min into leaf discs ([Kang et al., 2014]) prior to incubation (floating on peptide/dye solution) for the indicated time. In some experiments FAM–Y-flg22 was used with results similar to FAM–flg22.
For experiments with mixed peptides, leaf discs were floated for the indicated time on 2 μM FAM–flg22, FAM–scrambled peptide or fluorescein mixed with 1 μM TAMRA–flg22. In all experiments, leaf discs were washed after treatment by gently shaking for several minutes in water and the abaxial side was imaged by confocal or epifluorescence microscopy (see ‘Microscopy’). Fluorescence intensity profiles were generated with ImageJ, as in [Spallek et al., (2013)] and [Bozkurt et al. (2015)] (see ‘Data analysis’).
Confocal images were obtained using a Zeiss LSM710 laser-scanning confocal microscope (Zeiss, Germany) as described in [Kang et al. (2014)]. Fluorescence was visualized as follows: GFP/FAM/fluorescein/BCECF excitation (ex) 488 nm/emission (em) 495–545 nm; TAMRA ex 561 nm/em 566–620 nm; FM4-64: ex 561 nm/em 686–758 nm. Green and red fluorescence was acquired for the same field using a sequential acquisition mode.
Fluorescence intensity profiles were generated with ImageJ (http://rsb.info.nih.gov/ij, last accessed 6 April 2017) using RGB Profiler and Color Profiler. Fluorescent puncta were manually counted in 20 μm × 20 μm confocal image areas as in [Irani et al. (2012)] and [Chaparro-Garcia et al., (2015)] and shown as a fraction ([Irani et al., 2012]; [Choi et al., 2013]). […]

[2] = system: Arabidopsis plants; assay: Long-distance transport after surface application of fluorescent peptide; format: in vivo, Arabidopsis thaliana; details: 1 d
Description: We applied 10–20 μl of 5 μM TAMRA–flg22 (without or with inhibitors: 50 μM MG132 or 50 mM BDM) to a filter paper disc placed on the adaxial side of one leaf of in vitro-grown Arabidopsis plants and distal tissues were imaged by confocal microscopy after 1 d. For experiments with mixed peptides, 5 μM TAMRA–flg22 + 10 μM FAM–scrambled peptides were used.
[^14C]sucrose radioactivity was quantified in a scintillation counter.

[3] = target: T1, FLS2 (Arabidopsis thaliana, UniProt Q9FL28); assay: ROS assay in leaf discs; format: cell-based; details: flg22-induced ROS; Supplementary Fig. S1B
T1 construct: treating Col and fls2 leaf discs (prefloated on water overnight) with 1 μM peptide and measuring ROS induction; from tissue; host or cells: Arabidopsis thaliana Col leaf discs (fls2 mutant as negative control)
T1 sequence (Q9FL28 24-1173): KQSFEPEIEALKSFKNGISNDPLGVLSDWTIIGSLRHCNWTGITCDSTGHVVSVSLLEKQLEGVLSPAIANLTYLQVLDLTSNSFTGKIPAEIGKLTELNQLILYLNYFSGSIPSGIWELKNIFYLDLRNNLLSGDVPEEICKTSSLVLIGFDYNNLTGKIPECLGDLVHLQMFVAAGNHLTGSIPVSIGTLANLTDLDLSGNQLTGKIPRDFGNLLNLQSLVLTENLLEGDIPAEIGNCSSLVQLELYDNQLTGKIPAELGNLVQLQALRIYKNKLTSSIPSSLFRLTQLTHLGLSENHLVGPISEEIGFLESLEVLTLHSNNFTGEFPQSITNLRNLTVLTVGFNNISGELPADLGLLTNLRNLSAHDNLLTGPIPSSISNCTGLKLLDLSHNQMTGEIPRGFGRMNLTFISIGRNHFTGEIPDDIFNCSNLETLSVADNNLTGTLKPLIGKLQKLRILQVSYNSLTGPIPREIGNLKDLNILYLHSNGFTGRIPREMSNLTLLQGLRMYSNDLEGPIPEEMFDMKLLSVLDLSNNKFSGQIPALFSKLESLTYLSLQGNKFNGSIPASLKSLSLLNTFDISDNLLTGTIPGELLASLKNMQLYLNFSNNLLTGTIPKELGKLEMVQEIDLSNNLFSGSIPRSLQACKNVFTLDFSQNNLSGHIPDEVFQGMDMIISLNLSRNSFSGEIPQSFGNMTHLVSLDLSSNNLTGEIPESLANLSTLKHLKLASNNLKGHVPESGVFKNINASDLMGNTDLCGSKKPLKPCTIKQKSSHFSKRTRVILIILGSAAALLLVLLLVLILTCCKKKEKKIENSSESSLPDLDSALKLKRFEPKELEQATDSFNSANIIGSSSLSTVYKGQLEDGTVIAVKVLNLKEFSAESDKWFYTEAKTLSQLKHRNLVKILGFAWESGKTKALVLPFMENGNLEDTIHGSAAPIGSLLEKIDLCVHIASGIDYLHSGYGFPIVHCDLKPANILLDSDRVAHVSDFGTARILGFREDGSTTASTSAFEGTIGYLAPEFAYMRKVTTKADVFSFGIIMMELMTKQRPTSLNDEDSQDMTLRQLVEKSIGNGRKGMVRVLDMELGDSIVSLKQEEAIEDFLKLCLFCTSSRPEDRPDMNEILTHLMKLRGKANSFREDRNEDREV
T1 sequence (Q94F62 26-615 partner): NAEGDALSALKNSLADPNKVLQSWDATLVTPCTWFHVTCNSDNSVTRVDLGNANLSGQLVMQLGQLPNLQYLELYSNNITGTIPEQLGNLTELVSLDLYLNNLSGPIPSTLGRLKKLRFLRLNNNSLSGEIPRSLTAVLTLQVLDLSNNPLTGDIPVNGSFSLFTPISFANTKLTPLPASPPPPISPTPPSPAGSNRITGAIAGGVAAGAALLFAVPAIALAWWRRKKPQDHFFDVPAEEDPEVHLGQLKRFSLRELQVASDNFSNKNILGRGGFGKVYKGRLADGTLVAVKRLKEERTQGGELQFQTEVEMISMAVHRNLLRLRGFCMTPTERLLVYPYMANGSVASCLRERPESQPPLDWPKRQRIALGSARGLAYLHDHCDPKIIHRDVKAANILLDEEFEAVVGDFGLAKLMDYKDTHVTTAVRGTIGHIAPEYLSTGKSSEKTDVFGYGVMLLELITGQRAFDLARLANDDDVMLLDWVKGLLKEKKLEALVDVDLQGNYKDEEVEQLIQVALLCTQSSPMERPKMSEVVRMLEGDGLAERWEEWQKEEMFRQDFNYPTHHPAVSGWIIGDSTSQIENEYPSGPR
Description: Bioactivity was verified for each batch of peptides by treating Col and fls2 leaf discs (prefloated on water overnight) with 1 μM peptide and measuring ROS induction as described in ([Tateda et al., 2014]).

[4] = system: Arabidopsis FLS2; details: ref Bauer et al., 2001; cited from earlier work
Excerpt: The fate of flg22 inside plant cells is similar to that of Potato mop-top and Cauliflower mosaic virus movement proteins, which are endocytosed and delivered to pre-vacuoles/late endosomal structures ([Haupt et al., 2005]; [Carluccio et al., 2014]). Endosomal trafficking of the movement proteins is essential for the spread of viruses to distal tissues, as is endocytosis of flg22 for efficient peptide movement to systemic tissue, although ...

Compound	effect of inhibitor on initial binding/uptake of TAMRA–flg22 ([1]; 5 μM TAMRA–flg22 with 50 μM MG132 or 50 mM BDM added simultaneously, 1–2 h)	effect of inhibitor on overnight accumulation of TAMRA–flg22 in vacuoles ([1]; 1–2 μM TAMRA–flg22 with 50 μM MG132 or 50 mM BDM, overnight)	effect of inhibitor on long-distance movement of TAMRA–flg22 ([2]; Col, 5 μM TAMRA–flg22 with 50 μM MG132 or 50 mM BDM on filter paper disc)	effect of endocytosis inhibitor on defense activation measured by ROS production [3]	reversibility of binding to microsomal membranes [4]	amount detected in distal organs ([2]; fls2 and bak1 mutants versus Col, 5 μM on filter paper disc, confocal, P<0.0002, n≥7)
CC(=O)C(C)=NO [BDM, 2,3-butanedione monoxime, reference compound]	did not prevent initial peptide binding/uptake	did not accumulate in vacuoles	prevented	impaired defense activation	–	–
CC[C@H](C)[C@H](NC(=O)[C@H](CCC(N)=O)NC(=O)[C@H](CC(C)C)NC(=O)CNC(=O)[C@H](C)NC(=O)[C@H](C)NC(=O)[C@H](CC(=O)O)NC(=O)[C@H](CC(=O)O)NC(=O)[C@H](CCCCN)NC(=O)[C@H](C)NC(=O)[C@H](CO)NC(=O)[C@H](CC(N)=O)NC(=O)[C@@H](NC(=O)[C@H](CCCNC(=N)N)NC(=O)[C@H](CO)NC(=O)CNC(=O)[C@@H](NC(=O)[C@H](CO)NC(=O)[C@H](CC(C)C)NC(=O)[C@H](CCCNC(=N)N)NC(=O)[C@@H](N)CCC(N)=O)[C@@H](C)O)[C@@H](C)CC)C(=O)N[C@@H](C)C(=O)O [flg22] (H-QRLSTGSRINSAKDDAAGLQIA-OH)	–	–	–	–	reversible	significantly less
